# Source: patent US20070148666A1, “Diagnosis and Treatment of Brain Cancer” (priority 2005, published 2007)
# How the values were obtained:
# Type in all cases: cell-based, human
# sFRP 1 = assay: Expression microarray, TSA fold increase of sFRP1; details: D283 medulloblastoma cells
# Text: (§1) RNA from vehicle and TSA treated D283 cells was reverse-transcribed and hybridized to the ABI 1700 Human Genome Expression Microarray containing 33,202 gene-specific 60-mer oligonucleotide probes. Data was quantile normalized and t-test was applied to each gene for statistical significance. Differential gene expression was quantified using the Storey q-value method and data visualized using Spotfire software.
# (§2) The inventors performed studies that determined that antagonists of Wnt signalling are epigenetically silenced in medulloblastoma.
# (§3) The D283 cell line was cultured with either 0.2 μM TSA or DMSO for 9 hours to generate gene expression profiles in response to TSA. Total RNA was extracted from treated cells using Trizol (Invitrogen, Carlsbad, Calif.). RNA was further purified using the RNeasy kit (QIAGEN, Valencia, Calif.) per manufacturer's protocol and purity of RNA was determined by the Agilent Bioanalyzer. 2 μg of total RNA was reverse-transcribed with the Chemiluminescent RT-IVT Labeling Kit (Applied Biosystems, Foster City, Calif.) and hybridized to a 60-mer whole genome oligonucleotide microarray (Applied Biosystems, Foster City, Calif.) containing 33,202 probes representing 29,098 genes per manufacturer's protocol. […] Differential gene expression was quantified using Storey q-value method (Storey and Tibshirani, 2003, Proc Natl Acad Sci USA 100, 9440-9445). […]
# D283 cells [1] = assay: Whole genome expression microarray of TSA treated D283 cells; details: 0.2 μM TSA, 9 hours, q<0.001
# Protocol: as §1
# as §3, with “protocol. A total of three microarray hybridizations, one for each biological replicate, were performed per treatment.” for “protocol.”
# Dkk 1 = assay: Expression microarray, TSA fold increase of Dkk1; details: D283 medulloblastoma cells
# Text: as §1, §2, §3
# D283 cells [2] = assay: FACS analysis of TUNEL-stained D283 cells (apoptosis); details: 12 hours, TUNEL FACS (DMSO 13%)
# Protocol: FIGS. 11A-11C. Effects of TSA on D283 cells. (FIG. 11A) Dose response curves of cell viability for D283 medulloblastoma cells treated with increasing doses of the HDAC inhibitor TSA. (FIG. 11B) FACs analysis of TUNEL-stained (BD Biosciences) D283 cells treated with TSA for 12 hours. FACs dot plots of cells with DMSO (i), and cells treated with 0.02 μM and 0.2 μM TSA (ii and iii).
# DKK1 = assay: qPCR of DKK1 expression after TSA
# Protocol: The inventors identified genes by means of the microarray analysis. The results were verified by real time PCR (ABI) in D283 cells using Assay on demand gene expression reagents (ABI) for selected genes. Human Gus was used as the normalizer gene. Real-time PCR was performed on ABI PRISM 7900 HT detection system. Validated genes were assayed in normal brain and medulloblastoma patient samples.
# (§4) RNA was isolated from cells and tissues with Triazol (Invitrogen, Carlsbad, Calif.). Real-time PCR was performed on the ABI PRISM 7900 HT detection system using Taq man reagents (Applied Biosystems, Foster City, Calif.) per the manufacturer's recommendations. Gene expression was determined with Assay on Demand gene expression reagents (Applied Biosystems, Foster City, Calif.). All assays were done in triplicate.
# p21 = assay: qPCR of p21 mRNA after TSA; details: TSA 0.2 μM, D283, Daoy and MB 100 primary cells, n=3
# Protocol: as §4
# WIF 1 = assay: Expression microarray, TSA fold increase of WIF1; details: D283 medulloblastoma cells
# Text: as §1, §2, §3
# histone acetylation = assay: Western blot analysis of histone acetylation; details: D283 cells, 9 hours of TSA exposure
# RASSF1 = assay: qPCR of RASSF1 mRNA after TSA; details: TSA 0.2 μM, D283, Daoy and MB 100 primary cells, n=3
# Protocol: as §4
# [3] = system: D283 medulloblastoma cells; assay: Cell viability of D283 cells treated with TSA (MTT assay, washout experiments)
# Protocol: The inventors tested cell viability of D283 medulloblastoma cells treated with increasing doses of the HDAC inhibitor TSA (FIG. 1A). They also tested cell viability was measured by an MTT assay.
# The inventors also determined the minimum time of TSA exposure needed to induce cell death (FIG. 1B). D283 cells were exposed to TSA for various time points and the media replaced for an additional 24 h prior to assaying for cell viability.
# To identify genes regulated by changes in histone H3 K9 acetylation status, the inventors first determined the optimal dose and timing for treating D283 medulloblastoma cells with TSA. The D283 cell line was chosen since it is widely used as a cell model of medulloblastoma and is well characterized. […] For microarray studies, the inventors treated D283 cells with 0.2 μM TSA for 9 hours. […] To confirm the microarray analysis, real-time quantitative PCR (qPCR) was performed on nine randomly selected genes (FIG. 12A).
# D283 cells [4] = assay: Colony formation assay on soft agar; details: transfected D283 cells, after 3 weeks, p<0.001
# Protocol: Wnt inhibitors were cloned into pcDNA3.1, D283 cells transfected and plated on agar. Colonies selected in G418. Total number of colonies formed on agar was counted for three separate experiments (FIG. 8).
# Colony formation assays were performed on soft agar. Cells were plated at 1.5×10^5 per well using 6-well plates and transfected with pcDNA3.1D/V5-His-TOPO/DKK1, pcDNA3.1D/N5-His-TOPO/lacZ or pcDNA3.1D/V5-His-TOPO with no insert (mock control) using Trans It-Neural transfection reagents (Mirus). The cells were selected in G418 (1 mg/ml) supplemented media at 24 hr post transfection. The cells were simultaneously harvested to confirm their expression at the mRNA level by real-time PCR. G418 resistant cells were maintained for two weeks in culture. Cells were re-suspended in media containing 0.3% agarose and were overlaid on 0.6% agarose. 0.5 ml media was added to the plates every four days and colony formation was quantified after fixation and staining with methylene blue after 3 weeks.
Compound,TSA fold increase of sFRP1 (sFRP 1) [fold],number of genes induced at least 2-fold (D283 cells [1]),TSA fold increase of Dkk1 (Dkk 1) [fold],apoptotic cells (D283 cells [2]; 0.02 μM TSA) [%],apoptotic cells (D283 cells [2]; 0.2 μM TSA) [%],"DKK1 expression (DKK1; D283 cells, TSA 0.2 μm, qPCR)","DKK1 expression (DKK1; MB47, MB100, MB187 primary cells and D283, RT-PCR)",p21 mRNA (p21),TSA fold increase of WIF1 (WIF 1) [fold],histone acetylation (histone acetylation),RASSF1 mRNA (RASSF1),"cell viability ([3]; 0.1 μM TSA, 24 h, MTT assay) [%]","cells committed to cell death by 24 hours ([3]; 0.2 μM TSA for 9 hours, washout) [%]","cell viability ([3]; 0.2 μM TSA, 9 hours) [%]","cell viability ([3]; 0.2 μm TSA, 24 h, MTT assay) [%]","surviving cells ([3]; TSA exposure between 6 and 9 h, media replaced for additional 24 h) [%]",fewer neo-resistant colonies than controls (D283 cells [4]) [%]
"CC(/C=C/C(=O)NO)=C\[C@@H](C)C(=O)c1ccc(N(C)C)cc1 [TSA, Trichostatin A]",2.9,714,1.4,31,79,potently induces DKK1 expression,increased on TSA treatment,induction,2.5,robust histone acetylation,induction,50,85,100,30,80,
DKK1,,,,,,,,,,,,,,,,,60
